Experimental data from the supplement of paper PMC10307832.

What was measured:
Assay in all cases: relative viability (nuclei count vs DMSO), 5 days (fraction); higher = more cells survive
Pemetrexed + Trametinib = compound: Nc1nc2[nH]cc(CCc3ccc(C(=O)N[C@@H](CCC(=O)O)C(=O)O)cc3)c2c(=O)[nH]1 [Pemetrexed] + CC(=O)Nc1cccc(-n2c(=O)n(C3CC3)c(=O)c3c(Nc4ccc(I)cc4F)n(C)c(=O)c(C)c32)c1 [Trametinib] (partner 0.02 µM)
How it was run: (§1)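 After 5 days of treatment, lung cancer cells in 1536-well plates were fixed and stained in a single step (final 0.05% Triton X-100, 1% formaldehyde, 1 ug/ml Hoechst) and their nuclei counted on 4× images. Treatment had been applied by pin tool the day after seeding as one drug alone or as a fixed anchor-drug dose with five library-drug doses (not always all listed) in √10 steps. Relative viability is the nuclei count of treated wells divided by that of vehicle wells, and values are medians of duplicate plates.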

Pemetrexed + OSI-027 = compound: Nc1nc2[nH]cc(CCc3ccc(C(=O)N[C@@H](CCC(=O)O)C(=O)O)cc3)c2c(=O)[nH]1 [Pemetrexed] + COc1cccc2cc(-c3nc([C@H]4CC[C@H](C(=O)O)CC4)n4ncnc(N)c34)[nH]c12 [OSI-027] (partner 0.5 µM)
How it was run: as §1

Pemetrexed + Crizotinib = compound: Nc1nc2[nH]cc(CCc3ccc(C(=O)N[C@@H](CCC(=O)O)C(=O)O)cc3)c2c(=O)[nH]1 [Pemetrexed] + C[C@@H](Oc1cc(-c2cnn(C3CCNCC3)c2)cnc1N)c1c(Cl)ccc(F)c1Cl [Crizotinib] (partner 1 µM)
How it was run: as §1

Pemetrexed + Olaparib = compound: Nc1nc2[nH]cc(CCc3ccc(C(=O)N[C@@H](CCC(=O)O)C(=O)O)cc3)c2c(=O)[nH]1 [Pemetrexed] + O=C(c1cc(Cc2n[nH]c(=O)c3ccccc23)ccc1F)N1CCN(C(=O)C2CC2)CC1 [Olaparib] (partner 8 µM)
How it was run: as §1

Row | Cell Line | relative viability (Pemetrexed + Trametinib; first compound 0.002 µM) | relative viability (Pemetrexed + Trametinib; first compound 0.006325 µM) | relative viability (Pemetrexed + Trametinib; first compound 0.02 µM) | relative viability (Pemetrexed + Trametinib; first compound 0.06325 µM) | relative viability (Pemetrexed + Trametinib; first compound 0.2 µM) | relative viability (Pemetrexed + OSI-027; first compound 0.002 µM) | relative viability (Pemetrexed + OSI-027; first compound 0.006325 µM) | relative viability (Pemetrexed + OSI-027; first compound 0.02 µM) | relative viability (Pemetrexed + OSI-027; first compound 0.06325 µM) | relative viability (Pemetrexed + OSI-027; first compound 0.2 µM) | relative viability (Pemetrexed + Crizotinib; first compound 0.002 µM) | relative viability (Pemetrexed + Crizotinib; first compound 0.006325 µM) | relative viability (Pemetrexed + Crizotinib; first compound 0.02 µM) | relative viability (Pemetrexed + Crizotinib; first compound 0.06325 µM) | relative viability (Pemetrexed + Crizotinib; first compound 0.2 µM) | relative viability (Pemetrexed + Olaparib; first compound 0.002 µM) | relative viability (Pemetrexed + Olaparib; first compound 0.006325 µM) | relative viability (Pemetrexed + Olaparib; first compound 0.02 µM) | relative viability (Pemetrexed + Olaparib; first compound 0.06325 µM) | relative viability (Pemetrexed + Olaparib; first compound 0.2 µM)
1 | NCI-H2009 | 0.303 | 0.256 | 0.316 | 0.249 | 0.27 | 0.573 | 0.607 | 0.749 | 0.66 | 0.683 | 1.01 | 1.04 | 1.01 | 1.06 | 1.04 | 0.648 | 0.689 | 0.714 | 0.651 | 0.661
2 | LC-2-ad | 0.915 | 0.856 | 0.87 | 0.82 | 0.306 | 0.606 | 0.831 | 0.561 | 0.28 | 0.339 | 0.425 | 0.473 | 0.457 | 0.263 | 0.29 | 0.712 | 0.711 | 0.683 | 0.612 | 0.312
3 | NCI-H1437 | 0.362 | 0.473 | 0.424 | 0.382 | 0.285 |  | 0.828 | 0.803 | 0.432 | 0.346 | 0.948 | 0.854 | 0.965 | 0.586 | 0.281 | 0.619 | 0.625 | 0.656 | 0.54 | 0.385
4 | NCI-H3122 | 0.255 | 0.236 | 0.252 | 0.218 | 0.202 | 0.857 | 0.879 | 0.923 | 0.524 | 0.221 | 0.275 | 0.261 | 0.261 | 0.244 | 0.233 | 0.592 | 0.636 | 0.678 | 0.567 | 0.513
5 | NCI-H727 | 0.346 | 0.395 | 0.464 | 0.357 | 0.404 | 0.568 | 0.668 | 0.587 | 0.692 | 0.752 | 0.56 | 0.782 | 0.877 | 0.986 | 0.732 | 0.617 | 0.654 | 0.692 | 0.795 | 0.689
6 | NCI-H1734 | 0.603 | 0.623 | 0.679 | 0.627 | 0.524 | 0.65 | 0.564 | 0.675 | 0.571 | 0.53 | 0.721 | 0.647 | 0.745 | 0.723 | 0.686 | 0.576 | 0.615 | 0.741 | 0.619 | 0.601
7 | HCC-15 | 0.371 | 0.344 | 0.392 | 0.336 | 0.218 | 0.592 | 0.668 | 0.76 | 0.501 | 0.203 | 0.747 | 0.824 | 0.883 | 0.775 | 0.473 | 0.644 | 0.724 | 0.804 | 0.601 | 0.353
8 | NCI-H2405 | 0.735 | 0.589 | 0.66 | 0.582 | 0.653 | 0.628 | 0.597 | 0.67 | 0.641 | 0.663 | 0.868 | 0.785 | 0.869 | 0.824 | 0.825 | 0.793 | 0.821 | 0.885 | 0.846 | 0.862
